Reference: patent US11434267B2, “Peptides having reduced toxicity that stimulate cholesterol efflux” (The Regents of the University of California, priority 2013, dated 2022)
Non-standard residues stand in square brackets, D forms with d. No end group written: not given here. Cit = NC(=O)NCCC[C@H](N)C(=O)O

Assays:
[1] = scaled values = (raw log(P) + 2.061)/4.484; cited from earlier work
C57Bl/6 mice = assay type: in vivo; conditions: 300 mg/kg IP, male chow-fed C57Bl/6 mice; for cytotoxic/toxic response (plasma CPK, ALT, AST) / muscle toxicity (plasma CPK activity): 4 h; for TG elevating effect (plasma TG, cholesterol): 4 and 6 h
Procedure: The high-dose cytotoxic response of ATI-5261 observed in rat, rabbit and cynomolgus monkey is additionally recapitulated in mice (FIG. 4). Male chow-fed C57bl/6 mice were injected intraperitonelly (IP) with 30 or 300 mg/kg of lipid-fee ATI-5261. Blood was collected via the retro-orbital plexus 4 h after peptide injection and plasma subsequently obtained for measurement of CPK (Panel A) and ALT and AST activities (Panel B, ALT left bars, AST, right bars). Values are means±SD, n=4 mice per group.
This example illustrates that aromatic phenylalanine residues associated with the non-polar surface of ATI-5261 contributed to the majority of the peptide toxicity (FIG. 5). […] Blood was collected via retro-orbital plexus 4 h after injection for isolation of plasma. Levels of plasma CPK (Panel A), ALT (panel B) and AST (Panel C) were determined as described in FIG. 1. Values are means±SD, n=4 mice per group.
The concentrations of plasma lipids in C57Bl/6 mice following administration of the aliphatic analogs of ATI-5261 was also determined. […] All values (mg/dl) are means±SD, n=4, determined at 4 and 6 h post treatment with peptide.

Row | Molecule | Hydrophobicity [1] | cytotoxic/toxic response (plasma CPK, ALT, AST) (C57Bl/6 mice) | muscle toxicity (plasma CPK activity) (C57Bl/6 mice) | also measured
1 | C[C@H](N)C(=O)O [Alanine] | 0.616 |  |  | 
2 | N=C(N)NCCC[C@H](N)C(=O)O [Arginine] | 0.000 |  |  | 
3 | NC(=O)C[C@H](N)C(=O)O [Asparagine] | 0.236 |  |  | 
4 | N[C@@H](CCC(=O)O)C(=O)O [Glutamate] | 0.043 |  |  | 
5 | NCC(=O)O [Glycine] | 0.501 |  |  | 
6 | N[C@@H](Cc1c[nH]cn1)C(=O)O [Histidine] | 0.165 |  |  | 
7 | CC[C@H](C)[C@H](N)C(=O)O [Isoleucine] | 0.943 |  |  | 
8 | NCCCC[C@H](N)C(=O)O [Lysine] | 0.283 |  |  | 
9 | CSCC[C@H](N)C(=O)O [Methionine] | 0.738 |  |  | 
10 | N[C@@H](Cc1ccccc1)C(=O)O [Phenylalanine] | 1.00 |  |  | 
11 | O=C(O)[C@@H]1CCCN1 [Proline] | 0.711 |  |  | 
12 | C[C@@H](O)[C@H](N)C(=O)O [Threonine] | 0.450 |  |  | 
13 | EARSKAEEWLAALLELAEELLARAKS [Peptide T5211-2] |  | displayed little or no toxic responses and low TG in plasma |  | 
14 | EARSKAEEWLAALRELAEELLARAKS [Peptide T5505-12] |  | produced low toxicity and greatly ablated TG elevating effects |  | TG elevating effect (plasma TG, cholesterol) (C57Bl/6 mice): produced low toxicity and greatly ablated TG elevating effects
15 | EVNSKLEEWLAALNELAEELLARLKS [Peptide T5766-4] |  |  | greatly reduced the increase in CPK and TG elevating effects | 
16 | EVQSKLEEWLAALQELAEELLARLKS [Peptide T5766-3] |  |  | greatly reduced the increase in CPK and TG elevating effects | 
17 | EVRSKLEEWFAAFREFAEEFLARL [Peptide T5766-5] |  | appeared to reduce the toxic responses | greatly reduced muscle toxicity | 
18 | EVRSKLEEWFAAFREFAEEFLARLNS [Peptide T5594-4] |  |  | greatly reduced muscle toxicity | 
19 | EVRSKLEEWIAAIREIAEEILARLKS [Peptide T6991-1] |  |  | displayed little or no cytotoxic properties related to CPK elevations | 
20 | EVRSKLEEWLAALRELAEELAARLKS [Peptide T4883-7] |  | further reduced cytotoxic response and TG elevating effects | sufficient to eliminate the residual muscle toxicity | TG elevating effect (plasma TG, cholesterol) (C57Bl/6 mice): further reduced cytotoxic response and TG elevating effects
21 | EVRSKLEEWLAALRELAEELLARAKS [Peptide T4883-6] |  | further reduced cytotoxic response and TG elevating effects | sufficient to eliminate the residual muscle toxicity | TG elevating effect (plasma TG, cholesterol) (C57Bl/6 mice): further reduced cytotoxic response and TG elevating effects
22 | EVRSKLEEWLAALRELAEELLARLKS [Peptide T5055-13] |  |  | residual toxicity | TG elevating effect (plasma TG, cholesterol) (C57Bl/6 mice): greatly attenuated
23 | EVRSKLQEWFAAFREFAQEFLARLKS [Peptide T5554-1] |  | produced a large increase in the toxic response |  | 
24 | T5554-4: E→Q analog bearing citrulline substitutions (EV[Cit]SKLQEWFAAFREFAEEFLARLKS) [Peptide T5554-4] |  | retained strong toxic (CPK, ALT, and AST) and TG elevating responses |  | 
25 | T5554-5: E→Q analog bearing citrulline substitutions, net charge −1 (EV[Cit]SKLQEWFAAF[Cit]EFAQEFLARLKS) [Peptide T5554-5] |  | retained strong toxic (CPK, ALT, and AST) and TG elevating responses |  | 
26 | T5594-5: ATI-5261 analog with all lysine residues (R>K substitutions) (EVKSKLEEWFAAFKEFAEEFLAKLKS; synthetic amphipathic alpha-helix cholesterol efflux peptide T5594-5, ATI-5261 analog) |  | displayed cytotoxic and TG elevating activity |  | 
